Values of other authors as cited in patent US20190367426A1, “LIQUID UREASE INHIBITOR FORMULATIONS” (YARA INTERNATIONAL ASA, priority 2017, published 2019).

Test system: rat

Row | Compound | toxicity oral rat LD50 [mg/kg]
1 | CCCCOCCOCCO [DEGMBE, Diethylene glycol monobutyl ether] | 5660
2 | COCCOCCO [DEGMME, Diethylene glycol monomethyl ether] | 6450
